Test results reported in patent US20240101540A1, “TARGETED PROTEIN DEGRADATION OF PARP14 FOR USE IN THERAPY” (Ribon Therapeutics, Inc., priority 2022, published 2024).
Where a name gives a salt, the structure may show the parent alone. Read-outs that look alike come from different tables or passages of the source.

Target: T1, HiBiT tagged PARP14 (Homo sapiens, UniProt Q460N5)
T1 construct: engineered to contain a HiBiT tag on both alleles of the PARP14 gene; endogenous in cells; host or cells: Jurkat cells stably transfected with LgBiT (Promega), PARP14 locus edited by CRISPR/Cas9
Assay: HiBiT assay for the degradation of PARP14 (HiBiT tagged PARP14 in LgBiT expressing Jurkat cells, 2 or 24 hours)
Assay type: cell-based
Details: Assay B (Example B): HiBiT tagged PARP14 degradation in LgBiT expressing Jurkat cells
Summary of the method: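 Jurkat cells stably expressing LgBiT with CRISPR knock-in of C-terminal HiBiT on both PARP14 alleles, 5,000 cells/well, treated with compound dose-response at 37 °C for 2 or 24 h. Live Cell Substrate luminescence normalised to 0.1% DMSO wells; DC50 from 4-parameter fit with floating top, bottom, Hill.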

T1 sequence (Q460N5 whole entry): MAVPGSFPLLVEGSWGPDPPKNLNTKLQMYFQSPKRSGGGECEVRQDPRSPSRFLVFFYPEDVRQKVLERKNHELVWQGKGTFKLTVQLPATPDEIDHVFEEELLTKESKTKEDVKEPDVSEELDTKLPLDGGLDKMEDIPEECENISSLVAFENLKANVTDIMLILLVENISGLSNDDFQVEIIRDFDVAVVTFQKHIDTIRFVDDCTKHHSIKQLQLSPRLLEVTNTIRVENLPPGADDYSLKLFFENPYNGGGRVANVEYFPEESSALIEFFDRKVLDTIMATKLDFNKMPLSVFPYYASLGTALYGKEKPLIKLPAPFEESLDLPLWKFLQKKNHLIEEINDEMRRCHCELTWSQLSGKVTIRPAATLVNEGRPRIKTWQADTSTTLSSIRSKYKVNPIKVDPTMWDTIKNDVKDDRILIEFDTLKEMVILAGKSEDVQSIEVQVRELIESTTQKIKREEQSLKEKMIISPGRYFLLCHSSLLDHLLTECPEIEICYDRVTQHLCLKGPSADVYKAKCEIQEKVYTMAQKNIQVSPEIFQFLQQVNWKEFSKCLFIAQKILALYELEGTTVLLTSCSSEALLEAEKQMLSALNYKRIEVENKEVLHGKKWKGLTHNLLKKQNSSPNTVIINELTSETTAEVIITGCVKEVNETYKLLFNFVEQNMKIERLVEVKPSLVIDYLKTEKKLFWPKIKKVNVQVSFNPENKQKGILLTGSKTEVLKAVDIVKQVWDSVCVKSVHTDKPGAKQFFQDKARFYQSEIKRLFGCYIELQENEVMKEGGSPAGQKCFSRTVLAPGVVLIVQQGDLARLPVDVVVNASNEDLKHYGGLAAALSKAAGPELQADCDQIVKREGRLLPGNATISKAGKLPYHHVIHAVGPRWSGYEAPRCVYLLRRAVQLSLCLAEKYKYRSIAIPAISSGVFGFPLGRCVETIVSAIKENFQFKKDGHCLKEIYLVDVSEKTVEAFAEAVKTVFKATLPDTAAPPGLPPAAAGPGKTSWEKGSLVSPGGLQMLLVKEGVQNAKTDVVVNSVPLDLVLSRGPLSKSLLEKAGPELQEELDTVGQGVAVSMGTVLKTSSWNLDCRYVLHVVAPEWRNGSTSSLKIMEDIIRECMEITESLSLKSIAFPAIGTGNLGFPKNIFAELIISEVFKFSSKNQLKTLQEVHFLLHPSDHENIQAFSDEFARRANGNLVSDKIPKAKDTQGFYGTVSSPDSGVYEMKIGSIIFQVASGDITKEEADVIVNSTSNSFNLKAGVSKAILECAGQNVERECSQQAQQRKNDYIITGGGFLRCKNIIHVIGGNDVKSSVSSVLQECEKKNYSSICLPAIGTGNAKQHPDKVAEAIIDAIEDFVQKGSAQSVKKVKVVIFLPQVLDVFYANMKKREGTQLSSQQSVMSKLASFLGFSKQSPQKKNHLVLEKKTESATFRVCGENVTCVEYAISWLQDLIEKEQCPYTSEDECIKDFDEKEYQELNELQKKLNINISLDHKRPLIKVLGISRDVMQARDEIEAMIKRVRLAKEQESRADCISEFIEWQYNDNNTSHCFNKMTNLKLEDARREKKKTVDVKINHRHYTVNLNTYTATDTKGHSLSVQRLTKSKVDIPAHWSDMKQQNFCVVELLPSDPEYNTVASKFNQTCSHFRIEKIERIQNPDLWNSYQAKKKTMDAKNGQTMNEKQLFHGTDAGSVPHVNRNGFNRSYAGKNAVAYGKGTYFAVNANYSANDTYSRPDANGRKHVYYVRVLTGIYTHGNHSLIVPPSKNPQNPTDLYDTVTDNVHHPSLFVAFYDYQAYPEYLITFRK

| DC50 (read-out: DC50) [nM] | Structure (SMILES) | DC50 [nM] |
| --- | --- | --- |
| < 30 | O=C1CCC(Nc2ccc(N3CCC(CN4CCC(N5CCC(COc6cc(F)c7c(=O)[nH]c(CSC8CCOCC8)nc7c6)CC5)CC4)CC3)c(F)c2)C(=O)N1 (stereo not shown) [Example 231, 3-((3-fluoro-4-(4-((4-(((5-fluoro-4-oxo-2-(((tetrahydro-2H-pyran-4-yl)thio)methyl)-3,4-dihydroquinazolin-7-yl)oxy)methyl)-[1,4′-bipiperidin]-1′-yl)methyl)piperidin-1-yl)phenyl)amino)piperidine-2,6-dione] | – |
| < 30 | O=C1CCC(Nc2ccc(N3CCN(CCN4CCC(C#Cc5cc(F)c6c(=O)[nH]c(CSC7CCOCC7)nc6c5)CC4)CC3)c(F)c2)C(=O)N1 (stereo not shown) [Example 226, 3-((3-fluoro-4-(4-(2-(4-((5-fluoro-4-oxo-2-(((tetrahydro-2H-pyran-4-yl)thio)methyl)-3,4-dihydroquinazolin-7-yl)ethynyl)piperidin-1-yl)ethyl)piperazin-1-yl)phenyl)amino)piperidine-2,6-dione formate] | – |
| < 30 | O=C1CCC(Nc2ccc(C(=O)N3CCN(CCN4CCC(COc5cc(F)c6c(=O)[nH]c(CSC7CCOCC7)nc6c5)CC4)CC3)cc2)C(=O)N1 (stereo not shown) [Example 188, 3-((4-(4-(2-(4-(((5-fluoro-4-oxo-2-(((tetrahydro-2H-pyran-4-yl)thio)methyl)-3,4-dihydroquinazolin-7-yl)oxy)methyl)piperidin-1-yl)ethyl)piperazine-1-carbonyl)phenyl)amino)piperidine-2,6-dione] | – |
| < 30 | Cn1nc(N2CCC(=O)NC2=O)c2cc(F)c(C3CCN(CCN4CCC(COc5cc(F)c6c(=O)[nH]c(CSC7CCOCC7)nc6c5)CC4)CC3)cc21 [Example 207, 1-(5-fluoro-6-(1-(2-(4-(((5-fluoro-4-oxo-2-(((tetrahydro-2H-pyran-4-yl)thio)methyl)-3,4-dihydroquinazolin-7-yl)oxy)methyl)piperidin-1-yl)ethyl)piperidin-4-yl)-1-methyl-1H-indazol-3-yl)dihydropyrimidine-2,4(1H,3H)-dione formate] | – |
| < 30 | O=C1CCC(Nc2ccc(N3CCN(CCN4CCC(COc5cc(F)c6c(=O)[nH]c(CSC7CCOCC7)nc6c5)CC4)C(=O)C3)c(F)c2)C(=O)N1 (stereo not shown) [Example 234, 3-((3-fluoro-4-(4-(2-(4-(((5-fluoro-4-oxo-2-(((tetrahydro-2H-pyran-4-yl)thio)methyl)-3,4-dihydroquinazolin-7-yl)oxy)methyl)piperidin-1-yl)ethyl)-3-oxopiperazin-1-yl)phenyl)amino)piperidine-2,6-dione] | – |
| < 30 | Cn1nc(N2CCC(=O)NC2=O)c2ccc(N3CCC(CN4CCC(COc5cc(F)c6c(=O)[nH]c(CSC7CCOCC7)nc6c5)CC4)CC3)cc21 [Example 181, 1-(6-(4-((4-(((5-fluoro-4-oxo-2-(((tetrahydro-2H-pyran-4-yl)thio)methyl)-3,4-dihydroquinazolin-7-yl)oxy)methyl)piperidin-1-yl)methyl)piperidin-1-yl)-1-methyl-1H-indazol-3-yl)dihydropyrimidine-2,4(1H,3H)-dione] | – |
| < 30 | O=C1CCC(Nc2ccc(F)c(N3CCC(N4CC(N5CCC(COc6cc(F)c7c(=O)[nH]c(CSC8CCOCC8)nc7c6)CC5)C4)CC3)c2)C(=O)N1 (stereo not shown) [Example 236, 3-((4-fluoro-3-(4-(3-(4-(((5-fluoro-4-oxo-2-(((tetrahydro-2H-pyran-4-yl)thio)methyl)-3,4-dihydroquinazolin-7-yl)oxy)methyl)piperidin-1-yl)azetidin-1-yl)piperidin-1-yl)phenyl)amino)piperidine-2,6-dione] | – |
| < 30 | O=C1CCN(c2ccc(C3CCN(CCN4CCC(COc5cc(F)c6c(=O)[nH]c(CSC7CCOCC7)nc6c5)CC4)CC3)c(F)c2)C(=O)N1 [Example 208, 1-(3-fluoro-4-(1-(2-(4-(((5-fluoro-4-oxo-2-(((tetrahydro-2H-pyran-4-yl)thio)methyl)-3,4-dihydroquinazolin-7-yl)oxy)methyl)piperidin-1-yl)ethyl)piperidin-4-yl)phenyl)dihydropyrimidine-2,4(1H,3H)-dione] | – |
| < 30 | O=C1CCC(Nc2ccc(N3CCC(N4CCC(N5CCC(COc6cc(F)c7c(=O)[nH]c(CSC8CCOCC8)nc7c6)CC5)CC4)CC3)c(F)c2)C(=O)N1 (stereo not shown) [Example 228, 3-((3-fluoro-4-(4-(((5-fluoro-4-oxo-2-(((tetrahydro-2H-pyran-4-yl)thio)methyl)-3,4-dihydroquinazolin-7-yl)oxy)methyl)-[1,4′:1′,4″-terpiperidin]-1″-yl)phenyl)amino)piperidine-2,6-dione diformate] | – |

More lines, now with the values behind:

| Structure (SMILES) | DC50 (read-out: DC50) [nM] | DC50 [nM] |
| --- | --- | --- |
| O=C1CCC(Nc2ccc(N3CCC(N4CC(N5CCC(COc6cc(F)c7c(=O)[nH]c(COC8CCOCC8)nc7c6)CC5)C4)CC3)c(F)c2)C(=O)N1 (stereo not shown) [Example 136, 3-((3-fluoro-4-(4-(3-(4-(((5-fluoro-4-oxo-2-(((tetrahydro-2H-pyran-4-yl)oxy)methyl)-3,4-dihydroquinazolin-7-yl)oxy)methyl)piperidin-1-yl)azetidin-1-yl)piperidin-1-yl)phenyl)amino)piperidine-2,6-dione] | < 30 | – |
| O=C1CCC(Nc2cnc(N3CCN(CCN4CCC(COc5cc(F)c6c(=O)[nH]c(CSC7CCOCC7)nc6c5)CC4)CC3)c(F)c2)C(=O)N1 (stereo not shown) [Example 108, 3-((5-fluoro-6-(4-(2-(4-(((5-fluoro-4-oxo-2-(((tetrahydro-2H-pyran-4-yl)thio)methyl)-3,4-dihydroquinazolin-7-yl)oxy)methyl)piperidin-1-yl)ethyl)piperazin-1-yl)pyridin-3-yl)amino)piperidine-2,6-dione] | < 30 | – |
| O=C1CCC(Nc2ccc(N3CCC4(CC3)CC(N3CCC(COc5cc(F)c6c(=O)[nH]c(CSC7CCOCC7)nc6c5)CC3)C4)cc2)C(=O)N1 (stereo not shown) [Example 128] | < 30 | – |
| O=C1CCC(Nc2ccc(N3CCC(N4CCN(CCOc5cc(F)c6c(=O)[nH]c(CSC7CCOCC7)nc6c5)CC4)CC3)cc2)C(=O)N1 (stereo not shown) [Example 125] | < 30 | – |
| O=C1CCC(Nc2ccc(N3CCN(CCN4CCC(COc5cc(F)c6c(=O)[nH]c(COC7CCOCC7)nc6c5)CC4)CC3)c(F)c2)C(=O)N1 (racemic) [Example 99, 3-((3-fluoro-4-(4-(2-(4-(((5-fluoro-4-oxo-2-(((tetrahydro-2H-pyran-4-yl)oxy)methyl)-3,4-dihydroquinazolin-7-yl)oxy)methyl)piperidin-1-yl)ethyl)piperazin-1-yl)phenyl)amino)piperidine-2,6-dione] | – | < 30 |
| O=C1CCN(c2ccc(N3CCC(CN4CCC(COc5cc(F)c6c(=O)[nH]c(COC7CCOCC7)nc6c5)CC4)CC3)c(F)c2)C(=O)N1 [Example 180, 1-(3-fluoro-4-(4-((4-(((5-fluoro-4-oxo-2-(((tetrahydro-2H-pyran-4-yl)oxy)methyl)-3,4-dihydroquinazolin-7-yl)oxy)methyl)piperidin-1-yl)methyl)piperidin-1-yl)phenyl)dihydropyrimidine-2,4(1H,3H)-dione] | < 30 | – |
| O=C1CCC(Nc2ccc(N3CCC(CN4CCC(COc5cc(F)c6c(=O)[nH]c(CSC7CCOCC7)nc6c5)CC4)CC3)c(F)c2)C(=O)N1 (stereo not shown) [Example 144, 3-((3-fluoro-4-(4-((4-(((5-fluoro-4-oxo-2-(((tetrahydro-2H-pyran-4-yl)thio)methyl)-3,4-dihydroquinazolin-7-yl)oxy)methyl)piperidin-1-yl)methyl)piperidin-1-yl)phenyl)amino)piperidine-2,6-dione] | < 30 | – |
| O=C1CCC(Nc2ccc(N3CCN(CC(=O)N4CCC(COc5cc(F)c6c(=O)[nH]c(CSC7CCOCC7)nc6c5)CC4)CC3)c(F)c2)C(=O)N1 (stereo not shown) [Example 174, 3-((3-fluoro-4-(4-(2-(4-(((5-fluoro-4-oxo-2-(((tetrahydro-2H-pyran-4-yl)thio)methyl)-3,4-dihydroquinazolin-7-yl)oxy)methyl)piperidin-1-yl)-2-oxoethyl)piperazin-1-yl)phenyl)amino)piperidine-2,6-dione] | < 30 | – |
| O=C1CCC(Nc2ccc(N3CC(N4CCN(CCOc5cc(F)c6c(=O)[nH]c(CSC7CCOCC7)nc6c5)CC4)C3)cc2)C(=O)N1 (stereo not shown) [Example 130, 3-((4-(3-(4-(2-((5-fluoro-4-oxo-2-(((tetrahydro-2H-pyran-4-yl)thio)methyl)-3,4-dihydroquinazolin-7-yl)oxy)ethyl)piperazin-1-yl)azetidin-1-yl)phenyl)amino)piperidine-2,6-dione] | < 30 | – |
| COc1cc(N2CCN(CCN3CCC(COc4cc(F)c5c(=O)[nH]c(CSC6CCOCC6)nc5c4)CC3)CC2)c(F)cc1NC1CCC(=O)NC1=O (stereo not shown) [Example 140] | < 30 | – |
| Cn1nc(N2CCC(=O)NC2=O)c2ccc(N3CCC(N4CCC(COc5cc(F)c6c(=O)[nH]c(COC7CCOCC7)nc6c5)CC4)CC3)c(F)c21 [Example 159, 1-(7-fluoro-6-(4-(((5-fluoro-4-oxo-2-(((tetrahydro-2H-pyran-4-yl)oxy)methyl)-3,4-dihydroquinazolin-7-yl)oxy)methyl)-[1,4′-bipiperidin]-1′-yl)-1-methyl-1H-indazol-3-yl)dihydropyrimidine-2,4(1H,3H)-dione formate] | < 30 | – |
| O=C1CCC(Nc2ccc(N3CCC(N4CCC(COc5cc(F)c6c(=O)[nH]c(CSC7CCOCC7)nc6c5)CC4)CC3)cc2)C(=O)N1 (stereo not shown) [Example 112, 3-((4-(4-(((5-fluoro-4-oxo-2-(((tetrahydro-2H-pyran-4-yl)thio)methyl)-3,4-dihydroquinazolin-7-yl)oxy)methyl)-[1,4′-bipiperidin]-1′-yl)phenyl)amino)piperidine-2,6-dione] | < 30 | – |
| Cn1nc(N2CCC(=O)NC2=O)c2cc(F)c(N3CCC(N4CCC(COc5cc(F)c6c(=O)[nH]c(COC7CCOCC7)nc6c5)CC4)CC3)cc21 [Example 160, 1-(5-fluoro-6-(4-(((5-fluoro-4-oxo-2-(((tetrahydro-2H-pyran-4-yl)oxy)methyl)-3,4-dihydroquinazolin-7-yl)oxy)methyl)-[1,4′-bipiperidin]-1′-yl)-1-methyl-1H-indazol-3-yl)dihydropyrimidine-2,4(1H,3H)-dione] | < 30 | – |
